The text below walks through data of US6673902B2, “Cyclin D binding factor, and uses thereof” (St. Jude Children's Research Hospital, priority 1996, dated 2004).

One experiment deals with 32P-BS2 Probe. Put plainly: EMSA with 32P-BS2 probe on transfection lysates of NIH-3T3 fibroblasts. The format is binding. The following applies: EMSA, 32P-BS2 probe, lysates of transfected NIH-3T3 fibroblasts. How it is done:
Double-stranded oligonucleotides containing potential DMP1 binding sites (BS1 and BS2) and mutated versions (M1-M4) (FIG. 5B) are end-labeled with ^32P using the Klenow fragment of DNA polymerase and α-^32P-dATP (6000 Ci/mmol; Dupont NEN) (8). Nuclear extracts from mouse NIH-3T3 or CTLL cells are prepared with buffer containing 0.4 M NaCl (2). Mammalian cell extracts (15 μg protein) or Sf9 lysates (corresponding to 5×10^2 infected cells) containing ˜4 ng recombinant DMP1 are mixed with 3 ng of ^32P-labeled probe (1×10^5 cpm) in 15 ul Binding buffer containing 2.5 μg of poly(dI-dC) and 2.5 μg BSA and incubated at 4° C. for 30 minutes. For competition experiments, the indicated amounts of unlabeled oligonucleotides are added to the reactions before addition of the labeled probe. In some experiments, a bacterially produced GST-Ets2 fusion protein containing the complete Ets2 DNA-binding domain (10) is used in place of Sf9 extracts containing recombinant DMP1. Protein-DNA complexes are separated on nondenaturing 4% polyacrylamide gels as described (8). Where indicated, antiserum to DMP1 together with 2.5 μg salmon testis DNA (Sigma; used to reduce nonspecific DNA binding activity caused by serum addition) is preincubated with extracts for 30 minutes at 4° C. prior to initiation of binding reactions. Immune complexes are either removed by adsorption to protein A-Sepharose beads (immunodepletion experiments) or are allowed to remain (“supershift” experiments).
A series of deletion mutants and a point mutant of DMP1, K319E, (in which the lysine at position 319 of SEQ ID NO:1 is replaced by a glutamic acid) were prepared and used to determine the DNA-binding domain of DMP1 by electrophoretic mobility shift assay (EMSA) using a ^32P labeled BS2 probe. The DNA-binding domain of DMP1 was mapped to a central region containing the three MYB repeats plus adjacent flanking sequences: a BstEII to NcoI fragment encoding amino acids 87-458 of SEQ ID NO:1 (Table 1). This region alone was necessary and sufficient for DNA binding.
A general note: In EMSA bound probe runs differently from free probe, usually more slowly.

Experiment [1] concerns DMP1-responsive promoter (pGL2BS2). Put plainly: Transactivation of luciferase reporter plasmid under control of a DMP1-responsive promoter in NIH-3T3 fibroblasts. Type of experiment: cell-based, mouse. The following applies: vector without insert set to 1.0. An excerpt:
Coexpression of a D-type cyclin with DMP1 overrides the ability of DMP1 to transactivate a luciferase gene under the control of an artificial DMP1-responsive promoter (Table 4), as well as the ability of DMP1 to inhibit cell growth.
A general note: A reporter such as luciferase makes a cellular process visible.

A further experiment concerns NIH-3T3 fibroblasts. Put plainly: BrdU incorporation in transfected NIH-3T3 fibroblasts. Type of experiment: cell-based, mouse. The following applies: for % Cells BrdU Positive: Table 2, expression vector 3 μg/10 ml; for % Cells BrdU Positive in 10% FCS: nonstarved cells; for % Cells BrdU Positive in 0.1% FCS: starved cells. As for the experimental part: BrdU is added to NIH-3T3 cells after the experimental treatment and the cells were incubated for twenty-two hours in DMEM plus 10% fetal calf serum (FCS). The cells were then stained for DMP1 expression and/or BrdU incorporation. The nucleic acids encoding the wildtype DMP1 and the deletion and point mutants had been constructed so as to express the corresponding proteins with Flag-tags. To stain for DMP1 expression, mouse monoclonal anti-Flag antibodies (12 μg/ml) [Kodak] were incubated with the cells in TBS-Ca^+ without FCS for one hour at room temperature. After washing the cells, horse anti-mouse biotinylated antibodies at a 1:500 dilution were added to the cells in TBS plus 5% FCS and incubated for 30 minutes at room temperature. After washing the cells, strefptavidin linked to Texas red [Amersham] was then added at a 1:500 dilution for 30 minutes at room temperature. To stain for BrdU incorporation, 1.5N HCl was added to the cells for ten minutes at room temperature to denature the DNA. After washing the cells, sheep anti-BrdU antibodies [Fitzgerald] at a 1:12 dilution were then added for one hour at room temperature. After washing the cells, rabbit FITC-conjugated anti-sheep antibodies [Vector] at 1:100 dilution was then incubated for 30 minutes at room temperature.
NIH-3T3 cells were placed on cover slides and transfected with the expression vectors (pFLEX-DMP1 or the corresponding vector containing the deletion or point mutants of mouse DMP1 plus or minus cyclin D or E) for fourteen hours. The cells were then washed twice and DMEM plus 10% FCS was added and the cells incubated for eight hours. Half of the cells were starved by washing twice with 0.1% FCS, and then incubated for twenty-four hours in 0.1% FCS in DMEM. The remaining cells were not starved but were incubated for twenty-four hours in DMEM plus 10% FCS without washing. BrdU was added to both groups of cells and the cells were incubated for twenty-two hours in DMEM plus 10% FCS.
The cells were then restimulated to enter the cell cycle synchronously with DMEM plus 10% FCS. At the same time, 5′-Bromo-2′ Deoxyuridine (BrdU) was added to the medium. The cells were fixed 22 hours later in methanol acetone (1:1) and stained for BrdU incorporation and DMP1 expression as described in the Materials and Methods.
(In general: Uptake of a labelled nucleoside into DNA is a usual measure of proliferation.)

[2] abbreviates: expression vector 3 μg/10 ml, pGL2BS2 8 μg/10 ml.
[3] abbreviates: additive None, labeled 22 hours.

Consider “DMP1: murine cyclin D-associated myb-like transcription factor, 761 amino acids, SEQ ID NO:1”, for which the “32P-labeled Band” value in the experiment with 32P-BS2 Probe is given as “Yes”. Besides, the “Luciferase Activity” value in experiment [1] (Table 4, DMP1 coexpressed with the additive named as label (DMP1 row: no additive)) is reported as 8.4; in experiment [1] (setting [2]), 8.4. In addition, in the experiment on NIH-3T3 fibroblasts, the “% Cells BrdU Positive” value was found to be 12%. Moreover, the “% Cells BrdU Positive in 10% FCS” value in the experiment on NIH-3T3 fibroblasts (setting [3]) came out at 30%; in the experiment on NIH-3T3 fibroblasts (additive cyclin D2) it was 80%; in the experiment on NIH-3T3 fibroblasts (additive cyclin E) it was 82%. Moreover, the results for the “% Cells BrdU Positive in 0.1% FCS” value in the experiment with NIH-3T3 fibroblasts (setting [3]), in the experiment on NIH-3T3 fibroblasts (additive cyclin D2) and in the experiment with NIH-3T3 fibroblasts (additive cyclin E) were 15%, 57% and 56%, respectively.
Turning to “M3: DMP1 deletion mutant (NcoI), amino acids 1-458 of SEQ ID NO:1”, in the experiment with 32P-BS2 Probe, the “32P-labeled Band” value is recorded as “Yes”. Besides, the “Luciferase Activity” value in experiment [1] (setting [2]) is reported as 2.3. Also, the “% Cells BrdU Positive” value with NIH-3T3 fibroblasts was 24%.
